Test results published in article PMC12430443, “Discovery of Novel Benzamide-Based Sigma-1 Receptor Agonists with Enhanced Selectivity and Safety” (Molecules, 2025).
Read-outs that look alike come from different tables or passages of the source.

Columns and labels:
S1R = molecular target: T1, S1R (Homo sapiens, UniProt Q99720); assay: S1R competitive radioligand binding, [3H](+)-pentazocine, Jurkat cell membranes; settings: for IC50: [3H]-(+)-pentazocine displacement, n = 2; for Ki (S2R)/ Ki (S1R): selectivity ratio S2R/S1R
T1 construct: For the S1R assay, Jurkat cell membranes (10–20 μg protein/tube) were incubated at 37 °C for 2 h; host or cells: Jurkat cell membranes
T1 sequence (Q99720 whole entry): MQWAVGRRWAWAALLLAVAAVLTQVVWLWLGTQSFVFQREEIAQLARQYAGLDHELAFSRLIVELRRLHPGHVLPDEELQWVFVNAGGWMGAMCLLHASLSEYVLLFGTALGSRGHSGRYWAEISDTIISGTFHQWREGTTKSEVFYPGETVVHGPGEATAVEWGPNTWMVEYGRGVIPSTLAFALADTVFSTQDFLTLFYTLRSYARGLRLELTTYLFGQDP
Source text: S1R and S2R affinities were classically evaluated through competitive binding assays using radioligands, following the protocol described by Ganapathy et al.. The selective radioligand [^3H] (+)-pentazocine was employed as the classic prototypical ligand, selectively binding to the orthosteric S1R-binding sites. […] Jurkat cell membranes served as the receptor source in both assays. The equilibrium dissociation constants (Ki) for S1R and S2R were derived from the IC50 values of each compound, and selectivity ratios (S2R/S1R) were subsequently calculated (Table 1, Figures S2 and S3).
Binding assays were performed by Eurofins Cerep (Poitiers, France) according to the protocol of Ganapathy. […] For the S2R assay, Jurkat cell membranes (10–20 μg protein/tube) were incubated at room temperature for 1 h in the same buffer with [^3H]-DTG (25 nM) in the presence of (+)-pentazocine (1 μM) to saturate S1R, along with a range of test compound concentrations. Bound radioactivity was quantified by liquid scintillation counting. Nonspecific binding was determined under identical conditions in the presence of 10 μM unlabeled haloperidol. The IC50 values (concentration causing a half-maximal inhibition of control-specific binding) and Hill coefficients (nH) were determined by non-linear regression analysis of the competition curves generated with mean replicate values using Hill equation curve-fitting. This analysis was performed using software developed at Cerep (Hill software) and validated by comparison with data generated by the commercial software SigmaPlot ®4.0 for Windows® (©1997 by SPSS Inc.). Inhibition constants (Ki) were calculated from IC50 values using the method of Cheng and Prusoff.

Plasma protein binding = format: in vitro ADME; settings: n = 2
Protocol: Solubility and stability remained unchanged in simulated gastric fluid (SGF) and simulated intestinal fluid (SIF), which mimic gastrointestinal digestion. Intestinal permeability was assessed using a two-chamber system with apical (A, pH 6.5) and basolateral (B, pH 7.4) compartments, representing the luminal and blood/mesenteric lymph sides of the gastrointestinal tract, respectively. […] The efflux ratios for both compounds ranged between 1 and 2, indicating improved permeability relative to the reference compound 1.
Standardized in vitro ADME experiments were performed by Eurofins Cerep (Poitiers, France). […] The compound was classically evaluated at 10 µM for all of the ADME analyses. Bidirectional permeability (apical A to basolateral B pH 6.5/7.4, and basolateral B to apical A pH 7.4/6.5) was assessed in the epithelial colorectal adenocarcinoma cell line (Caco-2 cell line). The results were expressed as ×10^−6 cm/s (Papp) and as % recovery. The efflux ratio, i.e., Papp (B→A)/Papp(A→B), was calculated. Plasma protein binding was analyzed by HPLC-MS/MS after 4 h of incubation at 37 °C, as described by Banker et al.. Concentration was evaluated by LC/MS-MS. […] Respective metabolites for each specific transporter substrate were analyzed by fluorometry or scintillation counting, and % inhibition of control values were calculated. […] The efflux ratio was calculated as Papp(B→A)/Papp(A→B). […]

Microsomal stability = format: in vitro ADME; settings: human, liver microsomes
Protocol: (§1) Microsomal stability was evaluated using human liver microsomes at 10 µM (Table 3). […] Since cytochrome P450 (CYP) enzymes—especially families 1 to 3—play major roles in drug metabolism, CYP inhibition was tested against the human isoforms CYP1A, 2B6, 2C8, 2C9, 2C19, 2D6, and 3A, as recommended by FDA and EMA guidelines. […] Membrane transport proteins, including the ATP-binding cassette (ABC) and solute carrier (SLC) families, affect drug pharmacokinetics and potential drug–drug interactions. The inhibitory effects of compounds 2 and 6 were assessed against five ABC transporters (P-gp, BCRP, MRP1, MRP2, and MRP3) and seven SLC transporters (OAT1, OAT3, OATP1B1, OCT1, OCT2, ASBT, and NTCP).

CYP1A = assay: CYP inhibition in human liver microsomes; format: in vitro ADME; settings: n = 2, read-out: CYP inhibition 1A
Protocol: as §1
(§2) Standardized in vitro ADME experiments were performed by Eurofins Cerep (Poitiers, France). Solubility assays were performed in PBS at pH 7.4, but also in simulated gastric fluid (SGF) and intestinal fluid (SIF), through the classical shake-flask method described by Lipinski et al., using HPLC-UV/VIS technology. The results were expressed in µM. The compound was classically evaluated at 10 µM for all of the ADME analyses. Bidirectional permeability (apical A to basolateral B pH 6.5/7.4, and basolateral B to apical A pH 7.4/6.5) was assessed in the epithelial colorectal adenocarcinoma cell line (Caco-2 cell line). The results were expressed as ×10^−6 cm/s (Papp) and as % recovery. The efflux ratio, i.e., Papp (B→A)/Papp(A→B), was calculated. Plasma protein binding was analyzed by HPLC-MS/MS after 4 h of incubation at 37 °C, as described by Banker et al.. Concentration was evaluated by LC/MS-MS. CYP inhibition was performed in human liver microsomes as described in [28]. Analysis of the respective metabolites was performed by HPLC-MS/MS. Transporter inhibition analysis was also performed in overexpressing cell lines. Respective metabolites for each specific transporter substrate were analyzed by fluorometry or scintillation counting, and % inhibition of control values were calculated. P-glycoprotein transporter substrate assessment was performed by bidirectional permeability analysis (apical A to basolateral B pH 7.4/7.4, and basolateral B to apical A pH 7.4/7.4) in the Caco-2 cell line with and without verapamil, as described in [26]. The results were expressed as ×10^−6 cm/s (Papp) and as % recovery. The efflux ratio was calculated as Papp(B→A)/Papp(A→B). CYP450 induction was assessed in human hepatocytes by measuring the mRNA levels of seven CYP isoforms via qPCR, as described in [40]. The compound was tested at 1, 10, and 100 μM, and fold-induction values were compared with predefined cut-off thresholds for each isoform and hepatocyte lot.

CYP2B6 = molecular target: T2, CYP2B6 (Homo sapiens, UniProt P20813); assay: CYP inhibition in human liver microsomes; format: in vitro ADME; settings: n = 2, read-out: CYP inhibition 2B6
T2 construct: tissue Eurofins Cerep (assay provider); host or cells: human liver microsomes
T2 sequence (P20813 whole entry): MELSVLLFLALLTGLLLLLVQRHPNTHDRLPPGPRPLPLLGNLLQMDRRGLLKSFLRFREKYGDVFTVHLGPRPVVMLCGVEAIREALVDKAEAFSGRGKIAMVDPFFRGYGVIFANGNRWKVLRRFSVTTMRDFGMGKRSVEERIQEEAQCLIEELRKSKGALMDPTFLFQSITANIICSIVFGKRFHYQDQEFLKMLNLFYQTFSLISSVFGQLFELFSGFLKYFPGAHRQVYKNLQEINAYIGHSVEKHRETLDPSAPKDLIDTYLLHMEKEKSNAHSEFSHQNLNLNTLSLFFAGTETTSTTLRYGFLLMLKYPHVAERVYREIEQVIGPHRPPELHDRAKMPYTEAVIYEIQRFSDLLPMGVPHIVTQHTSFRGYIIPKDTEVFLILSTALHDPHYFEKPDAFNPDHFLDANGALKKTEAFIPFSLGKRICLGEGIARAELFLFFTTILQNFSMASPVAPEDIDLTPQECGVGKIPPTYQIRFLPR
Protocol: as §1, §2

CYP2C19 = molecular target: T3, CYP2C19 (Homo sapiens, UniProt P33261); assay: CYP inhibition in human liver microsomes; format: in vitro ADME; settings: n = 2, read-out: CYP inhibition 2C19
T3 construct: tissue Eurofins Cerep (assay provider); host or cells: human liver microsomes
T3 sequence (P33261 whole entry): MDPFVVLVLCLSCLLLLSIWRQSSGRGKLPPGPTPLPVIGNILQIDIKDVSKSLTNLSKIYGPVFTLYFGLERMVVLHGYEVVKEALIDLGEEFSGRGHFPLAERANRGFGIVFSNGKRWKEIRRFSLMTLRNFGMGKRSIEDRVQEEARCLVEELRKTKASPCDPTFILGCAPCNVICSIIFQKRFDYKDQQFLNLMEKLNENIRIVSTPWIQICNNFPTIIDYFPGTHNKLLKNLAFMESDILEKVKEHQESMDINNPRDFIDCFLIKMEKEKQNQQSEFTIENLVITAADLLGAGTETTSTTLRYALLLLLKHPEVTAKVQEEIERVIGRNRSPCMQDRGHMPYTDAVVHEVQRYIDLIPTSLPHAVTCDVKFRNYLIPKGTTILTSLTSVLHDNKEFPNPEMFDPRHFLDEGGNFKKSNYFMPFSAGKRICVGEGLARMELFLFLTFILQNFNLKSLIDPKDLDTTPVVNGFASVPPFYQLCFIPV
Protocol: as §1, §2

CYP2C9 = molecular target: T4, CYP2C9 (Homo sapiens, UniProt P11712); assay: CYP inhibition in human liver microsomes; format: in vitro ADME; settings: n = 2, read-out: CYP inhibition 2C9
T4 construct: tissue Eurofins Cerep (assay provider); host or cells: human liver microsomes
T4 sequence (P11712 whole entry): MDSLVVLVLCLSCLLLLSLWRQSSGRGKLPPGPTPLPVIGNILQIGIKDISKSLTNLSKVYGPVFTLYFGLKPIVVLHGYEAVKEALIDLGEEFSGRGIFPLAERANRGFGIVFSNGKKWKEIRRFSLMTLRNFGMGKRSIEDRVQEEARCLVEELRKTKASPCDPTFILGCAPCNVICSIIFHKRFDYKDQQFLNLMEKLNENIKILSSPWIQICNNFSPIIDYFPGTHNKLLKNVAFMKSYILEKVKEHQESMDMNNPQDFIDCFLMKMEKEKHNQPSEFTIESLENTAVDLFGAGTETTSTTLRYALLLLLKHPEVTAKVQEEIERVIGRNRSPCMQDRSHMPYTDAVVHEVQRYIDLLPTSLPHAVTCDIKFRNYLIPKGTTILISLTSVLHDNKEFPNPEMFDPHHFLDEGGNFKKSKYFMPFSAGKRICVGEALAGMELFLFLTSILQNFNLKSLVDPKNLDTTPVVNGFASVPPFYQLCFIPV
Protocol: as §1, §2

CYP3A = assay: CYP inhibition in human liver microsomes; format: in vitro ADME; settings: n = 2, read-out: CYP inhibition 3A
Protocol: as §1, §2

[1] = n = 2, read-out: Human liver microsome intrinsic clearance

Q: With `CN(CCC(=O)NCc1cccc(Cl)c1)Cc1ccccc1` [Compound 2, 3-(Benzylmethylamino)-N-(3-chlorobenzyl)propanamide] as the compound, how does the Ki (S1R; [3H](+)-pentazocine, Jurkat cell membranes, mean of 2–3 independent experiments) read?
A: 0.6 nM

Q: What about the IC50 (S1R; Jurkat cell membranes) of the same compound?
A: 1.2 nM

Q: What about the “Ki (S2R)/ Ki (S1R)” value (S1R) of the same compound?
A: 317

Q: What about the fraction unbound at 4 h, 10 µM (Plasma protein binding) of the same compound?
A: 0.02

Q: And the microsomal CLint at 10 µM (Microsomal stability; [1])?
A: 135 µL/min/mg

Q: What about the inhibition at 10 µM (CYP1A) of the same compound?
A: 23.3%

Q: What about the inhibition at 10 µM (CYP2B6) of the same compound?
A: 16.9%

Q: And the inhibition at 10 µM (CYP2C19)?
A: 43.9%

Q: And the inhibition at 10 µM (CYP2C9)?
A: 13.1%

Q: And the inhibition at 10 µM (CYP3A)?
A: 30.9%

Q: What does the source list for `CN(CCC(=O)NCc1ccc(C#N)cc1)Cc1ccccc1` [Compound 6, 3-(Benzylmethylamino)-N-(4-cyanobenzyl)propanamide]?
A: IC50 (S1R; Jurkat cell membranes): 11 nM; Ki (S2R)/ Ki (S1R) (S1R): 331; fraction unbound at 4 h, 10 µM (Plasma protein binding): 0.37; half-life at 10 µM (Microsomal stability; as in running text, read-out: Human liver microsome half-life): > 1 h; half-life at 10 µM (Microsomal stability; n = 2, read-out: Human liver microsome half-life t1/2): > 1 h; microsomal CLint at 10 µM (Microsomal stability; [1]): < 116 µL/min/mg; microsomal CLint at 10 µM (Microsomal stability; read-out: Human liver microsome clearance): < 115 µL/min/mg; inhibition at 10 µM (CYP1A): 13.2%; inhibition at 10 µM (CYP2B6): 17.7%; inhibition at 10 µM (CYP2C19): 30%; inhibition at 10 µM (CYP2C9): 10%; inhibition at 10 µM (CYP3A): 17.4%
